Where a name gives a salt, the structure may show the parent alone.
System: T1, 1N4R p-tau
T1 construct: made in house; host or cells: E. coli (PIMAX system)
Test: p-tau aggregation modulator screen of 1280-compound library (ThS fluorescence net change over 16 h)
Assay type: biochemical
Design: key to PTAI>3SD: *: PTAI>3SD
Conditions: not given

Row | Molecule | PTAI>3SD | ThS net change
1 | Oc1c(Cl)cc(Cl)c(Cl)c1Cc1c(O)c(Cl)cc(Cl)c1Cl [Hexachlorophene, hexachlorophene] | * | 74
2 | Merbromin | – | 306
3 | CCC1(c2cccc(O)c2)CCCCN(C)C1 (centres unmarked) [Meptazinol hydrochloride] | – | 462
4 | CC(COc1ccccc1)N(CCCl)Cc1ccccc1 (centres unmarked) [Phenoxybenzamine hydrochloride] | – | 560
5 | CC[N+](CC)(CC(=O)Nc1c(C)cccc1C)Cc1ccccc1 [Denatonium benzoate] | – | 448
6 | Clc1ccc(CO/N=C(\Cn2ccnc2)c2ccc(Cl)cc2Cl)c(Cl)c1 [Oxiconazole Nitrate] | – | 211
7 | CCC1(c2ccc(N)cc2)CCC(=O)NC1=O (centres unmarked) [Glutethimide, para-amino] | – | 340

Same assay, conditions: 1280-compound library screen; ThS fluorescence net change over 16 h

Row | Molecule | ThS net change
8 | CCCC(=O)Nc1ccc(OCC(O)CNC(C)C)c(C(C)=O)c1 (centres unmarked) [Acebutolol hydrochloride] | 381
9 | C#CCN(C)CCCOc1ccc(Cl)cc1Cl [Clorgyline hydrochloride] | 400
10 | CCCN[C@H]1CCc2nc(N)sc2C1 [Pramipexole dihydrochloride] | 385
11 | CN(C)CCC(c1ccc(Br)cc1)c1ccccn1 (centres unmarked) [Brompheniramine maleate] | 379
12 | CC(=O)Oc1ccc(C(c2ccc(OC(C)=O)cc2)c2ccccn2)cc1 [Bisacodyl] | 398
13 | C[C@]12CCC(=O)C=C1CC[C@@H]1[C@@H]2[C@@H](O)C[C@@]2(C)[C@H]1CC[C@]2(O)C(=O)CO [Hydrocortisone base] | 398
14 | CNS(=O)(=O)Cc1ccc2[nH]cc(CCN(C)C)c2c1 [Sumatriptan succinate] | 393
15 | CCN1CCCC(OC(=O)C(c2ccccc2)c2ccccc2)C1 (centres unmarked) [Piperidolate hydrochloride] | 406
16 | O=C(O)c1ccccc1OP(=O)(O)O [Fosfosal] | 380
17 | CC(C)(S)C(N)C(=O)O (racemic) [D,L-Penicillamine] | 385
18 | CNC(=C[N+](=O)[O-])NCCSCc1ccc(CN(C)C)o1 [Ranitidine hydrochloride] | 405
19 | O=C(O)COC(=O)Cc1ccccc1Nc1c(Cl)cccc1Cl [Aceclofenac] | 390

Same assay, conditions: 1280-compound library screen; […]

Row | Molecule | ThS net change
20 | CC(C)(N)Cc1ccccc1.Cl [Phentermine hydrochloride] | 408

Same assay, conditions: flag: p-tau aggregation inhibitor, ThS net change more than 3 SD from mean

Row | Molecule | PTAI>3SD
21 | COC(=O)C1=C(C)NC(C)=C(C(=O)OC)C1c1ccccc1[N+](=O)[O-] [Nifedipine, nifedipine, reference compound] | *
22 | Nc1ccc(/N=N/c2ccccc2)c(N)n1 [Phenazopyridine hydrochloride] | *
23 | Cc1cc(C2CCCCC2)n(O)c(=O)c1.NCCO [Ciclopirox ethanolamine] | *

Same assay, conditions: library screen, ThS fluorescence net change over 16 h with p-tau

Row | Molecule | ThS net change
24 | COC(=O)C1=C(C)NC(C)=C(C(=O)OC)C1c1ccccc1[N+](=O)[O-] [Nifedipine, nifedipine, reference compound] | -97
25 | C=C1/C(=C\C=C2/CCC[C@]3(C)[C@@H]([C@H](C)CCCC(C)C)CC[C@@H]23)C[C@@H](O)C[C@@H]1O [Alfacalcidol] | 284
26 | COc1cc2nc(N3CCN(C(=O)C4COc5ccccc5O4)CC3)nc(N)c2cc1OC (centres unmarked) [Doxazosin mesylate] | 310
27 | CN(C)[C@@H]1C(O)=C(C(N)=O)C(=O)[C@@]2(O)C(O)=C3C(=O)c4c(O)cccc4[C@@](C)(O)[C@H]3[C@H](O)[C@@H]12 [Oxytetracycline dihydrate] | 220
28 | Nc1ccc(/N=N/c2ccccc2)c(N)n1 [Phenazopyridine hydrochloride] | 12
29 | Cc1cc(C2CCCCC2)n(O)c(=O)c1.NCCO [Ciclopirox ethanolamine] | 20

Same assay, conditions: p-tau aggregation modulator screen of 1280-compound library; ThS fluorescence net change

Row | Molecule | ThS net change
30 | Cl.Cl.c1ccc2c(c1)CCCc1cc(NCCN3CCOCC3)nnc1-2 | 345
31 | CN1CCN2c3ccccc3Cc3ccccc3C2C1.Cl (centres unmarked) [Mianserine hydrochloride] | 366
32 | O=C(NCCNCC(O)COc1ccc(O)cc1)N1CCOCC1 (centres unmarked) [Xamoterol hemifumarate] | 378
33 | C[C@H](CCC(=O)O)[C@H]1CC[C@H]2[C@@H]3C(=O)C[C@@H]4CC(=O)CC[C@]4(C)[C@H]3CC(=O)[C@]12C [Dehydrocholic acid] | 331
34 | CC(NCCc1ccc(O)cc1)C(O)c1ccc(O)cc1 (centres unmarked) [Ritodrine hydrochloride] | 363
35 | CC[C@H]1OC(=O)C[C@@H](O)[C@H](C)[C@@H](O[C@@H]2O[C@H](C)[C@@H](O[C@H]3C[C@@](C)(O)[C@@H](O)[C@H](C)O3)[C@H](N(C)C)[C@H]2O)[C@@H](CC=O)C[C@@H](C)C(=O)/C=C/C(C)=C/[C@@H]1CO[C@@H]1O[C@H](C)[C@@H](O)[C@@H](OC)[C@H]1OC [Tylosin] | 372
36 | CC[C@H]1OC(=O)[C@H](C)[C@@H](O[C@H]2C[C@@](C)(OC)[C@@H](O)[C@H](C)O2)[C@H](C)[C@@H](O[C@@H]2O[C@H](C)C[C@H](N(C)C)[C@H]2O)[C@](C)(O)C[C@@H](C)/C(=N\OCOCCOC)[C@H](C)[C@@H](O)[C@]1(C)O [Roxithromycin] | 366
37 | NC(=O)N1c2ccccc2C=Cc2ccccc21 [Carbamazepine] | 370
38 | O=C1C(CC[S+]([O-])c2ccccc2)C(=O)N(c2ccccc2)N1c1ccccc1 (centres unmarked) [Sulfinpyrazone] | 342

Same assay, conditions: p-tau aggregation modulator screen of 1280-compound library; […]

Row | Molecule | ThS net change
39 | CCC1=C[C@@H]2C[N@]3CCc4c([nH]c5ccccc45)[C@@](C(=O)OC)(C2)[C@@H]13 [Catharanthine] | 374
40 | CN(C)CCOC(=O)COc1ccc(Cl)cc1.Cl [Meclofenoxate hydrochloride] | 359
41 | CCC(C)(CN(C)C)OC(=O)c1ccccc1.Cl (centres unmarked) [Amyleine hydrochloride] | 365

Same assay, conditions: p-tau aggregation modulator screen of the compound library, ThS fluorescence net change

Row | Molecule | ThS net change
42 | Cc1c(C)c2c(c(C)c1O)CCC(C)(C(=O)O)O2 (centres unmarked) [Trolox] | 413
43 | O=C1[C@H](CC[C@H](O)c2ccc(F)cc2)[C@@H](c2ccc(O)cc2)N1c1ccc(F)cc1 [Ezetimibe] | 466
44 | C#C[C@]1(OC(C)=O)CC[C@H]2[C@@H]3CCC4=CC(=NO)CC[C@@H]4[C@H]3CC[C@@]21CC (mixture of isomers) [Norgestimate] | 486
45 | C#CCN[C@@H]1CCc2ccccc21 [Rasagiline] | 447
46 | O=C(CCCN1CCC(n2c(O)nc3ccccc32)CC1)c1ccc(F)cc1 [Benperidol] | 416
47 | CC(C)COCC(CN(Cc1ccccc1)c1ccccc1)N1CCCC1 (centres unmarked) [Bepridil hydrochloride] | 418
48 | CN(C)CCN(Cc1ccc(Cl)cc1)c1ccccn1.Cl [Chloropyramine hydrochloride] | 421
49 | O=C(O)CNC(=O)C(CS)Cc1ccccc1 (centres unmarked) [Thiorphan] | 462
50 | NS(=O)(=O)c1cc2c(cc1C(F)(F)F)NCNS2(=O)=O [Hydroflumethiazide] | 425
51 | Cc1cn([C@H]2C[C@H](N=[N+]=[N-])[C@@H](CO)O2)c(=O)[nH]c1=O [Zidovudine, AZT] | 448
52 | CN1[C@@H]2CC[C@H]1C[C@@H](OC(c1ccccc1)c1ccccc1)C2 [Benztropine mesylate] | 419
53 | C[N+](C)(C)CCOC(N)=O [Carbachol] | 440

Molecular target: T2, p-tau (Homo sapiens, UniProt P10636)
T2 construct: made in house; host or cells: E. coli (PIMAX system)
Test: p-tau aggregation assay, dose response (ThS fluorescence, inducer-free)
Assay type: biochemical
Conditions: not given
Experimental: Aggregation of 6-µM p-tau under the influence of 30 µM of each of the library compounds or a DMSO vehicle control was monitored in 384-well plates every 10 min for ThS fluorescence changes over 16 h. To assess the quality of the high-throughput p-tau aggregation reactions, we used the T0 and T16hr ThS fluorescence units of no-compound control reactions to calculate the Z′-factor and coefficient of variation (CV), two commonly used criteria for robustness of high-throughput screens (HTS)[62]. A Z′-factor greater than 0.5 and CV smaller than 10% indicate robustness. […] To identify compounds with significant p-tau aggregation modulation, the net change of ThS fluorescence was calculated from all reactions (see Supplemental Table 1 for complete listing).
Aggregation of 6 µM of p-tau was done in the presence of the indicated concentrations of either compound. […] P-tau aggregation reactions with the C291S C322S (C/S) mutant p-tau were done in the presence of the indicated amounts of either compound. Shown are net changes of ThS over 16 h.
Given the tremendous socioeconomical burdens of AD, measures that prevent or delay the onset of the devastating neurodegeneration of AD will be highly impactful. If hyperphosphorylated tau-inflicted neuronal damages are an underpinning for AD and other tauopathies, enhancers of p-tau aggregation (PTAEs) may be risk factors for neurodegeneration. […] Prednicarbate is a synthetic corticosteroid for dermatological use, and carmofur (1-hexylcarbamoyl-5-fluorouracil) is an anti-neoplastic pyrimidine analogue. […] BZDs are among the most widely prescribed medication, in particular to the elderly, for depression and insomnia[70],[71]. We hypothesized that certain BZDs acted as a PTAE to potentiate p-tau aggregation and cytotoxicity. […] We therefore randomly picked nine prescription BZDs for p-tau aggregation assessment (Fig. 6; see Supplemental Fig. 5 for chemical structures). To 6-µM p-tau aggregation reactions, increasing doses of each of these BZDs were added.
Prednicarbate, a synthetic steroid, served as a PTAE control (yellow bars).
The aggregation assays over the course of this project have been done with multi-plate readers from different sources.
A common mix of 6 µM p-tau, 20 mM Tris pH 7.4, 1 mM DTT, and 20 µM ThS was assembled and dispensed to 384-well low-volume plates (10 µl per well) using BioTek EL406 Washer, followed by the addition of 150 nl of the Prestwick Library compounds (final concentration of 30 µM per well) or DMSO in a Beckman Coulter Biomek FX^P workstation. Each plate was covered with an Optical Adhesive Film and incubated at 37 °C for about 10 min. ThS fluorescence was measured every 10 min at 440/490 nm for 16 h by Biotek Synergy Neo Plate Reader. […] The real-time kinetics of ThS signals were collected using Gen5 software.

T2 sequence (P10636 1-412 isoform P10636-7): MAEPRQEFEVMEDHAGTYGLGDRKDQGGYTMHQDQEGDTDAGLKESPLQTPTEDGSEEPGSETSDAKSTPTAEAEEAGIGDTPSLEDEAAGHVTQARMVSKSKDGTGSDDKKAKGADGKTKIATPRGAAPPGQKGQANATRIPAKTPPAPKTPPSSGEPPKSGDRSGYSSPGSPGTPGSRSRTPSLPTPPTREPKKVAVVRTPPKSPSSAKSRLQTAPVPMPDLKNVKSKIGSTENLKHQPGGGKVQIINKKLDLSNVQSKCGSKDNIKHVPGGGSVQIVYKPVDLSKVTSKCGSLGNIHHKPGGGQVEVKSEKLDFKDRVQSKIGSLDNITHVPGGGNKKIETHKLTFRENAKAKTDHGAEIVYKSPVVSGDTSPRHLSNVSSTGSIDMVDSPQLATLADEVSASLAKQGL

Row | Molecule | EC50
54 | Oc1c(Cl)cc(Cl)c(Cl)c1Cc1c(O)c(Cl)cc(Cl)c1Cl [Hexachlorophene, hexachlorophene] | 17.8 µM

Same assay, conditions: 6 µM p-tau, 6.25-150 µM benzodiazepine

Row | Molecule | effect on p-tau aggregation (16-h net change of ThS fluorescence)
55 | O=C1CN=C(c2ccccc2)c2cc(Cl)ccc2N1 [nordiazepam] | did not
56 | CN1C(=O)CN=C(c2ccccc2)c2cc(Cl)ccc21 [diazepam] | enhanced p-tau aggregation in a dose-dependent manner
57 | CCN(CC)CCN1C(=O)CN=C(c2ccccc2F)c2cc(Cl)ccc21 [flurazepam] | enhanced p-tau aggregation in a dose-dependent manner
58 | O=C1Nc2ccc(Cl)cc2C(c2ccccc2)=NC1O (centres unmarked) [oxazepam] | did not
59 | CN1C(=O)CN=C(c2ccccc2)c2cc([N+](=O)[O-])ccc21 [nimetazepam] | did not
60 | CN1C(=O)C(O)N=C(c2ccccc2)c2cc(Cl)ccc21 (centres unmarked) [temazepam] | enhanced p-tau aggregation in a dose-dependent manner

Same assay, conditions: 6 µM p-tau, ThS fluorescence

Row | Molecule | EC50
61 | COC(=O)C1=C(C)NC(C)=C(C(=O)OC)C1c1ccccc1[N+](=O)[O-] [Nifedipine, nifedipine, reference compound] | 24.3 µM
